Test results from patent US12419902B2, “Anti-viral and anti-tumoral compounds” (priority 2019, dated 2025).
Values after ≈ are worked out from the molar mass of the structure shown.

Key:
enterovirus-68 (EV-68) = assay type: cell-based
Zika virus [1] = settings: nucleoside applied to cells, phosphorylated to ddhCTP; cited from earlier work
in vitro [2] = settings: human
Zika virus [3] = assay type: cell-based
Influenza A (H5N1) = experiment: microbe, parasite or virus in culture; assay type: cell-based
[4] = test system: Rift Valley fever virus (RVFV); experiment: microbe, parasite or virus in culture; assay type: cell-based; settings: Vero 76
Influenza B = experiment: microbe, parasite or virus in culture; assay type: cell-based
RSV = experiment: microbe, parasite or virus in culture; assay type: cell-based; settings: human respiratory syncytial virus, MA104
Influenza A (H1N1) = experiment: microbe, parasite or virus in culture; assay type: cell-based
in vitro [5] = settings: African green monkey

For `Nc1ccn([C@@H]2OC(CO)=C[C@H]2O)c(=O)n1` [AB21650, 3′-deoxy-3′,4′-didehydro cytidine], the “antiviral activity (in words)” value (enterovirus-68 (EV-68)) is listed as “exhibits some activity” and the “replication of Zika virus” value (Zika virus [1]) is listed as “directly inhibit replication of Zika virus”.

Work on `CCOC(=O)c1ccc(OCCC2CCN(c3ccc(C)nn3)CC2)cc1` [Pirodavir] yielded a CC50 (in vitro [2]) of 4.3 µg/mL (≈ 11.6 µM).

Molecule `C#C[C@@]1(O)[C@H](O)[C@@H](CO)O[C@H]1n1ccc2c(N)ncnc21` [NITD008] has an EC50 (Zika virus [3]) of 1.8 µg/mL (≈ 6.2 µM).

Work on `NC(=O)c1ncn([C@@H]2O[C@H](CO)[C@@H](O)[C@H]2O)n1` [Ribavirin] yielded an EC50 (Influenza A (H5N1); Influenza A virus, H5N1, MDCK) of 1.8 µg/mL (≈ 7.37 µM), an EC50 [4] of 14 µg/mL (≈ 57.3 µM) and an EC50 (Influenza B; Influenza B virus, MDCK) of 1.4 µg/mL (≈ 5.73 µM). It also gave an EC50 (RSV) of 7.3 µg/mL (≈ 29.9 µM) and an EC50 (Influenza A (H1N1); Influenza A virus, H1N1, MDCK) of 4.6 µg/mL (≈ 18.8 µM).

For `O=c1ccn([C@@H]2OC(CO)=C[C@H]2O)c(=O)[nH]1` [AB21649], the “antiviral activity (in words)” value (Influenza A (H5N1)) was “exhibits antiviral activity”, the “antiviral activity (in words)” value (Influenza B) was “exhibits antiviral activity” and the “antiviral activity (in words)” value (Influenza A (H1N1)) was “exhibits antiviral activity”.

With `CC(C)S(=O)(=O)n1c(N)nc2ccc(/C(=N/O)c3ccccc3)cc21` [Enviroxime] the CC50 (in vitro [5]) was 3.3 µg/mL (≈ 9.21 µM).

For `Nc1nc2c(ncn2[C@@H]2OC(CO)=CC2O)c(=O)[nH]1` (stereo partly drawn) [AB21651], the “antiviral activity (in words)” value (Influenza A (H5N1)) was “exhibits antiviral activity” and the “antiviral activity (in words)” value (Influenza A (H1N1)) was “exhibits antiviral activity”.
